Drawing on US11957759B1, “Rapidly accelerated fibrosarcoma (RAF) degrading compounds and associated methods of use” (Arvinas Operations, Inc., priority 2022, dated 2024), this text covers DC50 and Dmax for 12 compounds.

Structures are written as SMILES.

One experiment has as its target T1, B-RAF V600E (Homo sapiens, UniProt P15056, V600E).
T1 construct: expressed in transfected cells; host or cells: T-Rex 293 cells (Invitrogen #R71007)
As to the kind of experiment: Target protein degradation, assay C: T-Rex 293 cells, HA-BRAF_V600E, 384 well format. The experiment is classed as cell-based. Conditions: T-Rex 293 HA-BRAF_V600E cells, 24 hours, Examples 83-269; for DC50: Assay C; for Dmax: T-REx-293, Assay C. An outline of the steps:
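After 24 h exposure to an 11-point 1:3 series (300 nM–5 pM, 0.5% DMSO), fixed T-Rex 293 cells carrying HA-BRAF V600E (induced with 1 ng/mL doxycycline) were stained anti-HA and imaged. DC50 and Dmax were derived from BRAF intensity relative to control, and cytotoxicity from nuclear counts.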

The target in another experiment is T2, B-RAF G466V (Homo sapiens, UniProt P15056, G466V).
T2 construct: expressed in transfected cells; host or cells: T-Rex 293 cells (Invitrogen #R71007)
In words: Target protein degradation, assay D: T-Rex 293 cells, HA-BRAF_G466V, 384 well format. Format: cell-based. Conditions: T-Rex 293 HA-BRAF_G466V cells, 24 hours, Examples 83-269; for DC50: Assay D; for Dmax: T-REx-293, Assay D. An outline of the steps:
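Degradation measured by high-content imaging of anti-HA immunofluorescence in fixed T-Rex 293 cells carrying inducible HA-BRAF G466V (1 ng/mL doxycycline), after 24 h PROTAC exposure at 37 °C over 300 nM–5 pM (1:3, 11 points, 0.5% DMSO). Outputs DC50 and Dmax as % of control; nuclei counts against DMSO wells gauge toxicity.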

What is called DC50 is the midpoint of the concentration-degradation curve. High values mean a less potent degrader, low ones a more potent degrader. By Dmax is commonly meant the greatest extent of degradation seen.

T1 sequence (P15056 whole entry V600E): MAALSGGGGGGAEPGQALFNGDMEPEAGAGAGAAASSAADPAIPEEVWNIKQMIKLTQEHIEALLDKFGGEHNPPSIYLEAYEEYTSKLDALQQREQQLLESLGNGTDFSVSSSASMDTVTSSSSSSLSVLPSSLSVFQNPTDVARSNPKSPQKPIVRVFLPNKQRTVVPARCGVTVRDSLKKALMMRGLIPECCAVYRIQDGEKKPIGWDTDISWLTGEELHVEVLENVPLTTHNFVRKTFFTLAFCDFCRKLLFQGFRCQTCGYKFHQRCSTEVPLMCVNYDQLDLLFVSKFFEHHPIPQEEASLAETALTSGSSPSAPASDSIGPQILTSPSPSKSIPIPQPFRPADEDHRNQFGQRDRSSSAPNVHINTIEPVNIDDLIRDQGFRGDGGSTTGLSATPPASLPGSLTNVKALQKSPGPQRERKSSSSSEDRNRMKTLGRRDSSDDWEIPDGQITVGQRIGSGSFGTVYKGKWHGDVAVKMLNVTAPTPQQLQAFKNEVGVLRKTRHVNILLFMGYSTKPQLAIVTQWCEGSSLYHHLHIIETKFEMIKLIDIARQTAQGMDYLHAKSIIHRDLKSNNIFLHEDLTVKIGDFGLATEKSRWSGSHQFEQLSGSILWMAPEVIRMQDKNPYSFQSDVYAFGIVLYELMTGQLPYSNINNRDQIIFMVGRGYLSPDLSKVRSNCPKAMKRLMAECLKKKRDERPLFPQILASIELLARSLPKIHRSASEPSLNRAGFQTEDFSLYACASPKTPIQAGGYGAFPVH
T2 sequence (P15056 whole entry G466V): as the sequence (P15056 whole entry V600E) above, with G466V, E600V counted along it

`COc1cc(-n2cnc3ccc(Oc4c(F)ccc(NS(=O)(=O)N5CC[C@@H](F)C5)c4C#N)cc3c2=O)ccc1N1CCN(CC2CCN(c3ccc4c(c3)CN(C3CCC(=O)NC3=O)C4=O)CC2)CC1` (stereo partly drawn) [Example 88, (3R)-N-{2-cyano-3-[(3-{4-[4-({1-[2-(2,6-dioxopiperidin-3-yl)-1-oxo-2,3-dihydro-1H-isoindol-5-yl]piperidin-4-yl}methyl)piperazin-1-yl]-3-methoxyphenyl}-4-oxo-3,4-dihydroquinazolin-6-yl)oxy]-4-fluorophenyl}-3-fluoropyrrolidine-1-sulfonamide]: on B-RAF V600E, the DC50 was in the range of 5 to 50 nM and the Dmax was at most 35%. On B-RAF G466V, this compound had a DC50 of at most 1 nM and a Dmax of 35 to 70%.

For `N#Cc1c(NS(=O)(=O)N2CC[C@@H](F)C2)ccc(F)c1Oc1ccc2ncn(-c3cccc(N4CCN(CC5CCN(c6ccc7c(c6)CN([C@H]6CCC(=O)NC6=O)C7=O)CC5)CC4)c3)c(=O)c2c1` [Example 239, (3R)-N-(2-cyano-3-{[3-(3-{4-[(1-{2-[(3S)-2,6-dioxopiperidin-3-yl]-1-oxo-2,3-dihydro-1H-isoindol-5-yl}piperidin-4-yl)methyl]piperazin-1-yl}phenyl)-4-oxo-3,4-dihydroquinazolin-6-yl]oxy}-4-fluorophenyl)-3-fluoropyrrolidine-1-sulfonamide], the DC50 on B-RAF V600E fell in the range of 50 to 500 nM; on B-RAF G466V, 1 to 10 nM. Further, the Dmax at B-RAF V600E and at B-RAF G466V was at least 70% throughout.

On B-RAF V600E, `COCCN(CC1CCN(c2ccc(-n3cnc4ccc(Oc5c(F)ccc(NS(=O)(=O)N6CC[C@@H](F)C6)c5C#N)cc4c3=O)cc2)CC1)[C@H]1C[C@@H](Oc2ccc3c(c2)CN([C@H]2CCC(=O)NC2=O)C3=O)C1` [Example 267, (3R)-N-[2-cyano-4-fluoro-3-({3-[4-(4-{[(2-methoxyethyl)[(1r,3r)-3-({2-[(3S)-2,6-dioxopiperidin-3-yl]-1-oxo-2,3-dihydro-1H-isoindol-5-yl}oxy)cyclobutyl]amino]methyl}piperidin-1-yl)phenyl]-4-oxo-3,4-dihydroquinazolin-6-yl}oxy)phenyl]-3-fluoropyrrolidine-1-sulfonamide] gave a 50% degradation concentration (DC50) of 50 to 500 nM and a Dmax of 35 to 70%. At B-RAF G466V, this compound yielded a DC50 of 10 to 30 nM and a Dmax of 35 to 70%.

Regarding `N#Cc1c(NS(=O)(=O)N2CC[C@@H](F)C2)ccc(F)c1Oc1ccc2ncn(-c3cnc(N4CC5(CN(CC6CCN(c7cccc8c7C(=O)N(C7CCC(=O)NC7=O)C8=O)CC6)C5)C4)nc3)c(=O)c2c1` (stereo partly drawn) [Example 154, (3R)-N-{2-cyano-3-[(3-(2-[6-({1-[2-(2,6-dioxopiperidin-3-yl)-1,3-dioxo-2,3-dihydro-1H-isoindol-4-yl]piperidin-4-yl}methyl)-2,6-diazaspiro[3.3]heptan-2-yl]pyrimidin-5-yl}-4-oxo-3,4-dihydroquinazolin-6-yl)oxy]-4-fluorophenyl}-3-fluoropyrrolidine-1-sulfonamide], the figures for the half-maximal degradation concentration (DC50) at B-RAF V600E and at B-RAF G466V were 50 to 500 nM and 10 to 30 nM, respectively. Further, the Dmax at B-RAF V600E and on B-RAF G466V was at most 35% throughout.

On B-RAF V600E, `N#Cc1c(NS(=O)(=O)N2CC[C@@H](F)C2)ccc(F)c1Oc1ccc2ncn(-c3cnc(C4(N5CCN(CC6CCN(c7ccc(NC8CCC(=O)NC8=O)cc7F)CC6)CC5)CC4)nc3)c(=O)c2c1` (stereo partly drawn) [Example 102, (3R)-N-[2-cyano-3-({3-[2-(1-{4-[(1-{4-[(2,6-dioxopiperidin-3-yl)amino]-2-fluorophenyl}piperidin-4-yl)methyl]piperazin-1-yl}cyclopropyl)pyrimidin-5-yl]-4-oxo-3,4-dihydroquinazolin-6-yl}oxy)-4-fluorophenyl]-3-fluoropyrrolidine-1-sulfonamide] came in with a DC50 of 50 to 500 nM and a Dmax of 35 to 70%. Also, the DC50 at B-RAF G466V was above 30 nM.

On B-RAF V600E, `COc1cc(N2CC(CN3CCN(c4ccc(-n5cnc6ccc(Oc7c(F)ccc(NS(=O)(=O)N8CC[C@@H](F)C8)c7C#N)cc6c5=O)cc4)CC3)C2)cc2c1C(=O)N([C@H]1CCC(=O)NC1=O)C2` [Example 236, (3R)-N-(2-cyano-3-{[3-(4-{4-[(1-{2-[(3S)-2,6-dioxopiperidin-3-yl]-7-methoxy-1-oxo-2,3-dihydro-1H-isoindol-5-yl}azetidin-3-yl)methyl]piperazin-1-yl}phenyl)-4-oxo-3,4-dihydroquinazolin-6-yl]oxy}-4-fluorophenyl)-3-fluoropyrrolidine-1-sulfonamide] came in with a DC50 of 50 to 500 nM and a Dmax of 35 to 70%. Further, at B-RAF G466V, the DC50 was 10 to 30 nM and the Dmax is at least 70%.

As to `N#Cc1c(NS(=O)(=O)N2CC[C@@H](F)C2)ccc(F)c1Oc1ccc2ncn(-c3ccc(N4CCN(CCCOc5cccc6c5C(=O)N(C5CCC(=O)NC5=O)C6=O)CC4)nc3)c(=O)c2c1` (stereo partly drawn) [Example 150, (3R)-N-{2-cyano-3-[(3-{6-[4-(3-{[2-(2,6-dioxopiperidin-3-yl)-1,3-dioxo-2,3-dihydro-1H-isoindol-4-yl]oxy}propyl)piperazin-1-yl]pyridin-3-yl}-4-oxo-3,4-dihydroquinazolin-6-yl)oxy]-4-fluorophenyl}-3-fluoropyrrolidine-1-sulfonamide], on B-RAF V600E, the DC50 is at most 5 nM and the Dmax lay within 35 to 70%. On B-RAF G466V, the half-maximal degradation concentration (DC50) is at most 1 nM and the greatest degradation seen (Dmax) is at most 35%.

On B-RAF V600E, `Cn1c(=O)n(C2CCC(=O)NC2=O)c2cccc(N3CCN(CCN4CCN(c5ccc(-n6cnc7ccc(Oc8c(F)ccc(NS(=O)(=O)N9CC[C@@H](F)C9)c8C#N)cc7c6=O)cc5)CC4)CC3)c21` (stereo partly drawn) [Example 245, (3R)-N-{2-cyano-3-[(3-{4-[4-(2-{4-[1-(2,6-dioxopiperidin-3-yl)-3-methyl-2-oxo-2,3-dihydro-1H-1,3-benzodiazol-4-yl]piperazin-1-yl}ethyl)piperazin-1-yl]phenyl}-4-oxo-3,4-dihydroquinazolin-6-yl)oxy]-4-fluorophenyl}-3-fluoropyrrolidine-1-sulfonamide] returned a DC50 of 50 to 500 nM and a Dmax of at least 70%. Further, at B-RAF G466V, the DC50 lay within 1 to 10 nM and the Dmax lay in the range of 35 to 70%.

With `Cc1cc(N2CCC(CN3CCN(c4ccc(-n5cnc6ccc(Oc7c(F)ccc(NS(=O)(=O)N8CC[C@@H](F)C8)c7C#N)cc6c5=O)cc4)CC3)CC2)c(F)c2c1C(=O)N(C1CCC(=O)NC1=O)C2` (stereo partly drawn) [Example 94, (3R)-N-{2-cyano-3-[(3-(4-[4-({1-[2-(2,6-dioxopiperidin-3-yl)-4-fluoro-7-methyl-1-oxo-2,3-dihydro-1H-isoindol-5-yl]piperidin-4-yl}methyl)piperazin-1-yl]phenyl}-4-oxo-3,4-dihydroquinazolin-6-yl)oxy]-4-fluorophenyl}-3-fluoropyrrolidine-1-sulfonamide], at B-RAF V600E, the DC50 lay within 5 to 50 nM and the Dmax was in the range of 35 to 70%. Moreover, at B-RAF G466V, the 50% degradation concentration (DC50) is 1 to 10 nM and the Dmax is at most 35%.

On B-RAF V600E, `N#Cc1c(NS(=O)(=O)N2CC[C@@H](F)C2)ccc(F)c1Oc1ccc2ncn(-c3ccc(N4CCC(CC5CCCN5c5ccc6c(c5)C(=O)N(C5CCC(=O)NC5=O)C6=O)CC4)nc3)c(=O)c2c1` (stereo partly drawn) [Example 160, (3R)-N-{2-cyano-3-[(3-{6-[4-({1-[2-(2,6-dioxopiperidin-3-yl)-1,3-dioxo-2,3-dihydro-1H-isoindol-5-yl]pyrrolidin-2-yl}methyl)piperidin-1-yl]pyridin-3-yl}-4-oxo-3,4-dihydroquinazolin-6-yl)oxy]-4-fluorophenyl}-3-fluoropyrrolidine-1-sulfonamide] displayed a DC50 of 50 to 500 nM and a maximal degradation (Dmax) of at most 35%. On B-RAF G466V, this compound displayed a 50% degradation concentration (DC50) above 30 nM.

`Cc1c(N2CCC(CN3CCN(c4ccc(-n5cnc6ccc(Oc7c(F)ccc(NS(=O)(=O)N8CC[C@@H](F)C8)c7C#N)cc6c5=O)cc4)CC3)CC2)ccc2c1CN(C1CCC(=O)NC1=O)C2=O` (stereo partly drawn) [Example 104, (3R)-N-{2-cyano-3-[(3-{4-[4-({1-[2-(2,6-dioxopiperidin-3-yl)-4-methyl-1-oxo-2,3-dihydro-1H-isoindol-5-yl]piperidin-4-yl}methyl)piperazin-1-yl]phenyl}-4-oxo-3,4-dihydroquinazolin-6-yl)oxy]-4-fluorophenyl}-3-fluoropyrrolidine-1-sulfonamide]: the results for the DC50 on B-RAF V600E and at B-RAF G466V were 5 to 50 nM and 1 to 10 nM, respectively. In addition, the Dmax on B-RAF V600E and on B-RAF G466V was 35 to 70% throughout.

As for `N#Cc1c(NS(=O)(=O)N2CC[C@@H](F)C2)ccc(F)c1Oc1ccc2ncn(-c3ccc(N4CCC(CN5CC6(CCC(c7ccc8c(c7)CN([C@H]7CCC(=O)NC7=O)C8=O)CC6)C5)CC4)cc3)c(=O)c2c1` [Example 219, (3R)-N-(2-cyano-3-{[3-(4-{4-[(7-{2-[(3S)-2,6-dioxopiperidin-3-yl]-1-oxo-2,3-dihydro-1H-isoindol-5-yl}-2-azaspiro[3.5]nonan-2-yl)methyl]piperidin-1-yl}phenyl)-4-oxo-3,4-dihydroquinazolin-6-yl]oxy}-4-fluorophenyl)-3-fluoropyrrolidine-1-sulfonamide], at B-RAF V600E, the half-maximal degradation concentration (DC50) lay in the range of 50 to 500 nM and the Dmax lay within 35 to 70%. On B-RAF G466V, this compound yielded a DC50 of 1 to 10 nM and a Dmax of 35 to 70%.
